Laboratory results: patent US20080153872A1, “Bis-(Coumarin) Compounds With Anti-Inflammatory Activity” (priority 2005, published 2008)

system: CD1 mice; experiment: PMA induced ear oedema in CD1 mice; type: in vivo, mouse; settings: topical, single dose of 250 or 100 μg/15 μL/ear; statistically significant vs positive control
Method: Male CD1 mice (Iffa Credo, France) weighing ˜35-40 g were randomly grouped (n=8 in vehicle treated test group, dexamethasone treated control group as well as in groups treated with compounds to be assayed). Test compounds, dexamethasone as well as vehicle (Trans-phase Delivery System, containing benzyl alcohol 10%, acetone 40% and isopropanol 50%) (all from Kemika, Croatia), were administered topically to the internal surface of the left ear thirty minutes prior to administration of phorbol 12-myristate 13-acetate (PMA) (Alexis biochemicals, USA). Test compounds were administered at a single dose of 250 or 100 μg/15 μL/ear and dexamethasone at a single dose of 50 μg/15 μL/ear. Thirty minutes later, 0.01% PMA solution in acetone was applied topically to the same area of each animal in a volume of 12 μL/ear. During the treatment and challenge, animals were anaesthetized by using inhalation anaesthesia. Six hours after the challenge, animals were euthanized by asphyxiation in 100% CO2 atmosphere. For assessing the auricular oedema, 8 mm discs were cut out of left and right auricular pinna and weighed. The degree of oedema was calculated by subtracting the weight of 8 mm disc of the untreated ear from that of the treated contralateral ear.

Compound | suppression of ear oedema
CC(=O)C(c1c(O)c2cc(Cl)c(C)cc2oc1=O)c1c(O)c2cc(Cl)c(C)cc2oc1=O [Example 25] | considered active
CCc1ccc2oc(=O)c(C(C(C)=O)c3c(O)c4cc(CC)ccc4oc3=O)c(O)c2c1 [Example 26] | considered active
Cc1cc2oc(=O)c(C(CO)c3c(O)c4cc(C)c(C)cc4oc3=O)c(O)c2cc1C [Example 28] | considered active
CCc1ccc2oc(=O)c(C(CO)c3c(O)c4cc(CC)ccc4oc3=O)c(O)c2c1 [Example 29] | considered active
Cc1cc2oc(=O)c(C(C(=O)OCCO)c3c(O)c4cc(C)c(C)cc4oc3=O)c(O)c2cc1C [Example 51] | considered active
Cc1cc2oc(=O)c(C(C(=O)OCCO)c3c(O)c4cc(Cl)c(C)cc4oc3=O)c(O)c2cc1Cl [Example 54] | considered active
O=c1oc2ccccc2c(O)c1C(c1cccc(Cl)c1)c1c(O)c2ccccc2oc1=O [Example 66] | considered active
CCOC(=O)C(c1c(O)c2cccc(C(C)C)c2oc1=O)c1c(O)c2cccc(C(C)C)c2oc1=O [Example 292] | considered active
